Results as given in PMC9866191, “Novel 9-Benzylaminoacridine Derivatives as Dual Inhibitors of Phosphodiesterase 5 and Topoisomerase II for the Treatment of Colon Cancer” (Molecules, 2023).

How the values were obtained:
786-0 = assay: NCI-60 one-dose screen; type: cell-based; settings: Homo sapiens; 786-0, Renal Cancer panel; single dose 10^−5 M; read-out: Growth inhibition %
HS 578T = assay: NCI-60 one-dose screen; type: cell-based; settings: Homo sapiens, Breast Cancer panel, single dose 10^−5 M, read-out: Growth inhibition %
RPMI-8226 = assay: NCI-60 one-dose screen; type: cell-based; settings: Homo sapiens; RPMI-8226, Leukemia panel; single dose 10^−5 M; read-out: Growth inhibition %
HCT-15 = assay: NCI-60 one-dose screen; type: cell-based; settings: Homo sapiens; HCT-15, Colon Cancer panel; single dose 10^−5 M; read-out: Growth inhibition %
SR = assay: NCI-60 one-dose screen; type: cell-based; settings: Homo sapiens, Leukemia panel, single dose 10^−5 M, read-out: Growth inhibition %
MDA-MB-468 = assay: NCI-60 one-dose screen; type: cell-based; settings: Homo sapiens; MDA-MB-468, Breast Cancer panel; single dose 10^−5 M; read-out: Growth inhibition %
NCI-H322M = assay: NCI-60 one-dose screen; type: cell-based; settings: Homo sapiens, Non-small cell lung panel, single dose 10^−5 M, read-out: Growth inhibition %
UACC-257 = assay: NCI-60 one-dose screen; type: cell-based; settings: Homo sapiens; UACC-257, Melanoma panel; single dose 10^−5 M; read-out: Growth inhibition %
HCT-116 = assay: NCI-60 one-dose screen; type: cell-based; settings: Homo sapiens, read-out: Growth inhibition %
MOLT-4 = assay: NCI-60 one-dose screen; type: cell-based; settings: Homo sapiens; MOLT-4, Leukemia panel; single dose 10^−5 M; read-out: Growth inhibition %
HT29 = assay: NCI-60 one-dose screen; type: cell-based; settings: Homo sapiens, HT-29; HT29, Colon Cancer panel; single dose 10^−5 M; read-out: Growth inhibition %
MCF7 = assay: NCI-60 one-dose screen; type: cell-based; settings: Homo sapiens; MCF7, Breast Cancer panel; single dose 10^−5 M; read-out: Growth inhibition %
NCI-H460 = assay: NCI-60 one-dose screen; type: cell-based; settings: Homo sapiens; NCI-H460, Non-small cell lung panel; single dose 10^−5 M; read-out: Growth inhibition %
EKVX = assay: NCI-60 one-dose screen; type: cell-based; settings: Homo sapiens, Non-small cell lung panel, single dose 10^−5 M, read-out: Growth inhibition %
SF-539 = assay: NCI-60 one-dose screen; type: cell-based; settings: Homo sapiens; SF-539, CNS Cancer panel; single dose 10^−5 M; read-out: Growth inhibition %
PC-3 = assay: NCI-60 one-dose screen; type: cell-based; settings: Homo sapiens; PC-3, Prostate Cancer panel; single dose 10^−5 M; read-out: Growth inhibition %
BT-549 = assay: NCI-60 one-dose screen; type: cell-based; settings: Homo sapiens; BT-549, Breast Cancer panel; single dose 10^−5 M; read-out: Growth inhibition %
TK-10 = assay: NCI-60 one-dose screen; type: cell-based; settings: Homo sapiens; TK-10, Renal Cancer panel; single dose 10^−5 M; read-out: Growth inhibition %
A498 = assay: NCI-60 one-dose screen; type: cell-based; settings: Homo sapiens; A498, Renal Cancer panel; single dose 10^−5 M; read-out: Growth inhibition %
M14 = assay: NCI-60 one-dose screen; type: cell-based; settings: Homo sapiens; M14, Melanoma panel; single dose 10^−5 M; read-out: Growth inhibition %
KM12 = assay: NCI-60 one-dose screen; type: cell-based; settings: Homo sapiens; KM12, Colon Cancer panel; single dose 10^−5 M; read-out: Growth inhibition %
SW-620 = assay: NCI-60 one-dose screen; type: cell-based; settings: Homo sapiens; SW-620, Colon Cancer panel; single dose 10^−5 M; read-out: Growth inhibition %
NCI-H522 = assay: NCI-60 one-dose screen; type: cell-based; settings: Homo sapiens; NCI-H522, Non-small cell lung panel; single dose 10^−5 M; read-out: Growth inhibition %
MALME-3M = assay: NCI-60 one-dose screen; type: cell-based; settings: Homo sapiens, Melanoma panel, single dose 10^−5 M, read-out: Growth inhibition %
SK-MEL-28 = assay: NCI-60 one-dose screen; type: cell-based; settings: Homo sapiens; SK-MEL-28, Melanoma panel; single dose 10^−5 M; read-out: Growth inhibition %
HL-60(TB) = assay: NCI-60 one-dose screen; type: cell-based; settings: Homo sapiens, Leukemia panel, single dose 10^−5 M, read-out: Growth inhibition %
CCD-966SK = assay: MTT cell proliferation assay, CCD-966SK; settings: CCD966SK skin fibroblast; 10 µM; 72 h MTT
LOX IMVI = assay: NCI-60 one-dose screen; type: cell-based; settings: Homo sapiens, Melanoma panel, single dose 10^−5 M, read-out: Growth inhibition %
PDE5A = biological target: T1, PDE5A (Homo sapiens, UniProt O76074); assay: Phosphodiesterase 5 HTRF cGMP assay; type: biochemical; settings: for IC50: means ± S.D. (n = 4), read-out: PDE5 IC50; for inhibition at 10 µM: read-out: PDE5 % Inhibition at 10 μM
T1 construct: purchased BPS Bioscience, San Diego, CA, USA
Description: All the synthesized acridine derivatives were tested for their in vitro ability to inhibit PDE5A at a screening dose of 10 µM.
The enzyme activities of phosphodiesterase 5 (PDE5) were measured using an HTRF cGMP assay kit (Cisbio, Codolet, France). […] Afterward, the HTRF reagent (cGMP-d2 and anti-cGMP-cryptate) was added for 1 h at 25 °C, and PDE activity was assayed on an HTRF reader (Tecan Infinite F200 Pro).

COc1ccc(CNc2c3ccccc3nc3ccccc23)cc1F [Compound 19, Acridin-9-yl-(3-fluoro-4-methoxybenzyl)-amine]
inhibition at 10 µM (786-0): 74%
inhibition at 10 µM (HS 578T): 54.5%
inhibition at 10 µM (RPMI-8226): 106%
inhibition at 10 µM (HCT-15): 89%
inhibition at 10 µM (SR): 95.2%
inhibition at 10 µM (MDA-MB-468): 119%
inhibition at 10 µM (NCI-H322M): 68.3%
inhibition at 10 µM (UACC-257): 62.2%
inhibition at 10 µM (HCT-116): 87.7%
inhibition at 10 µM (MOLT-4): 91.1%
inhibition at 10 µM (HT29): 87.8%
inhibition at 10 µM (MCF7): 97.7%
inhibition at 10 µM (NCI-H460): 93.7%
inhibition at 10 µM (EKVX): 73.9%
inhibition at 10 µM (SF-539): 81.8%
inhibition at 10 µM (PC-3): 69.5%
inhibition at 10 µM (BT-549): 50.5%
inhibition at 10 µM (TK-10): 63.9%
inhibition at 10 µM (A498): 106%
inhibition at 10 µM (M14): 80.1%
inhibition at 10 µM (KM12): 67.2%
inhibition at 10 µM (SW-620): 83.4%
inhibition at 10 µM (NCI-H522): 63.8%
inhibition at 10 µM (MALME-3M): 76.4%
inhibition at 10 µM (SK-MEL-28): 53.3%
inhibition at 10 µM (HL-60(TB)): 87.1%
% Inhibition at 10 µM (CCD-966SK): 41.77 ± 0.99%
inhibition at 10 µM (LOX IMVI): 98.8%
IC50 (PDE5A): 3.39 ± 1.03 µM
inhibition at 10 µM (PDE5A): 79.2 ± 8.48%

COc1ccc(CNc2c3ccccc3nc3ccccc23)cc1 [Compound 7, Acridin-9-yl-(4-methoxybenzyl)-amine]
inhibition at 10 µM (786-0): 67.6%
inhibition at 10 µM (HS 578T): 42%
inhibition at 10 µM (RPMI-8226): 84.2%
inhibition at 10 µM (HCT-15): 78%
inhibition at 10 µM (SR): 93%
inhibition at 10 µM (MDA-MB-468): 72.9%
inhibition at 10 µM (NCI-H322M): 52.9%
inhibition at 10 µM (UACC-257): 47.7%
inhibition at 10 µM (HCT-116): 90.5%
inhibition at 10 µM (MOLT-4): 90.6%
inhibition at 10 µM (HT29): 80.7%
inhibition at 10 µM (MCF7): 87.4%
inhibition at 10 µM (NCI-H460): 90.3%
inhibition at 10 µM (EKVX): 50.3%
inhibition at 10 µM (SF-539): 72.5%
inhibition at 10 µM (PC-3): 66%
inhibition at 10 µM (BT-549): 19.9%
inhibition at 10 µM (TK-10): 50.5%
inhibition at 10 µM (A498): 90%
inhibition at 10 µM (M14): 62.9%
inhibition at 10 µM (KM12): 66.8%
inhibition at 10 µM (SW-620): 74.4%
inhibition at 10 µM (NCI-H522): 47%
inhibition at 10 µM (MALME-3M): 60%
inhibition at 10 µM (SK-MEL-28): 20.4%
inhibition at 10 µM (HL-60(TB)): 57%
% Inhibition at 10 µM (CCD-966SK): 13.09 ± 2.52%
inhibition at 10 µM (LOX IMVI): 79.1%
IC50 (PDE5A): > 10 µM
inhibition at 10 µM (PDE5A): < 0%

COc1ccc(CNc2c3ccccc3nc3ccccc23)c(OC)c1 [Compound 17, Acridin-9-yl-(2,4-dimethoxybenzyl)-amine]
inhibition at 10 µM (786-0): 60.9%
inhibition at 10 µM (HS 578T): 31.1%
inhibition at 10 µM (RPMI-8226): 65.1%
inhibition at 10 µM (HCT-15): 74%
inhibition at 10 µM (SR): 81.9%
inhibition at 10 µM (MDA-MB-468): 95.2%
inhibition at 10 µM (NCI-H322M): 60%
inhibition at 10 µM (UACC-257): 25.4%
inhibition at 10 µM (HCT-116): 87.2%
inhibition at 10 µM (MOLT-4): 81.5%
inhibition at 10 µM (HT29): 86.2%
inhibition at 10 µM (MCF7): 85.5%
inhibition at 10 µM (NCI-H460): 83.3%
inhibition at 10 µM (EKVX): 48.9%
inhibition at 10 µM (SF-539): 85.4%
inhibition at 10 µM (PC-3): 52.9%
inhibition at 10 µM (BT-549): 33.3%
inhibition at 10 µM (TK-10): 45.6%
inhibition at 10 µM (A498): 111%
inhibition at 10 µM (M14): 56.2%
inhibition at 10 µM (KM12): 45.7%
inhibition at 10 µM (SW-620): 79.3%
inhibition at 10 µM (NCI-H522): 59.4%
inhibition at 10 µM (MALME-3M): 33%
inhibition at 10 µM (SK-MEL-28): 30.7%
inhibition at 10 µM (HL-60(TB)): 63.1%
% Inhibition at 10 µM (CCD-966SK): 35.11 ± 0.42%
inhibition at 10 µM (LOX IMVI): 82.3%
IC50 (PDE5A): 6.77 ± 1.31 µM
inhibition at 10 µM (PDE5A): 60.2 ± 5.89%

COc1ccc(CNc2c3ccccc3nc3ccccc23)cc1OC [Compound 18, Acridin-9-yl-(3,4-dimethoxybenzyl)-amine]
inhibition at 10 µM (786-0): 74.6%
inhibition at 10 µM (HS 578T): 62.8%
inhibition at 10 µM (RPMI-8226): 99.4%
inhibition at 10 µM (HCT-15): 89.8%
inhibition at 10 µM (SR): 91.4%
inhibition at 10 µM (MDA-MB-468): 123%
inhibition at 10 µM (NCI-H322M): 70.2%
inhibition at 10 µM (UACC-257): 77.9%
inhibition at 10 µM (HCT-116): 87.8%
inhibition at 10 µM (MOLT-4): 89.4%
inhibition at 10 µM (HT29): 95.6%
inhibition at 10 µM (MCF7): 99.3%
inhibition at 10 µM (NCI-H460): 93.8%
inhibition at 10 µM (EKVX): 84.8%
inhibition at 10 µM (SF-539): 84.7%
inhibition at 10 µM (PC-3): 78%
inhibition at 10 µM (BT-549): 57.9%
inhibition at 10 µM (TK-10): 67.7%
inhibition at 10 µM (A498): 112%
inhibition at 10 µM (M14): 82.3%
inhibition at 10 µM (KM12): 68.4%
inhibition at 10 µM (SW-620): 84%
inhibition at 10 µM (NCI-H522): 81.8%
inhibition at 10 µM (MALME-3M): 92.1%
inhibition at 10 µM (SK-MEL-28): 64.8%
inhibition at 10 µM (HL-60(TB)): 87.3%
% Inhibition at 10 µM (CCD-966SK): 32.27 ± 0.58%
inhibition at 10 µM (LOX IMVI): 104%
IC50 (PDE5A): 9.77 ± 3.11 µM
inhibition at 10 µM (PDE5A): 51.2 ± 5.26%
